Consider six molecules from patent US20240299591A1, “Antimicrobial Peptides and Their Use” (priority 2021, published 2024).

In brackets after ≈: the same amount, converted by molar mass. Entries after “also recorded” stand apart in the source; their conditions may differ. Like-named read-outs stand apart in the source and are kept apart here. Where a SMILES comes first, the peptide text is derived from it. [ ]: non-standard residue; d: D form. The star is where a group is joined. X1 = CN1/C(=C/C=C(/C=C/C2=[N+](C)c3ccccc3C2(C)C)c2ccc(C(=O)*)cn2)C(C)(C)c2ccccc21; X2 = O=C1OC2(c3ccc(O)cc3Oc3cc(O)ccc32)c2cccc(C(=O)*)c21

One data set has as its system Aspergillus species. As to conditions: cited from earlier work.
For a further data set, the system named is Fusarium species. The settings on record: clinical isolates (Arikan et al., 2001); cited from earlier work.
Data set [1] deals with Aspergillus fumigatus. The class given is cell-based. The settings on record: 24 h. Here is the method:
The assays were performed using Nunc 262162 U96 polystyrene round bottomed clear plates (www.nuncbrand.com).
(§1) When testing the peptides against A. fumigatus, peptides at different concentrations were mixed with A. fumigatus conidia to reach a final volume of 100 μL per well. The final conidial concentration was 5×10^5 cells/mL in 10% Vogel's medium. After 24 h of incubation at 37° C. in 96 well plates, fungal growth with the different peptide concentrations was determined by measurement of the optical density at 610 nm in a TriStar LB 941 Multimode Microplate Reader. The IC50 values were determined using four parameter logistic regression formula provided by Sigma Plot 10.0. Values are represented as means±SEM from two independent experiments (n=3).
(§2) The IC50 of the fluorescently labelled peptides cannot be accurately determined using the optical density method described in the last section. This is because the fluorophore structures absorbed light at 610 nm which was the wavelength used for the optical density measurements. In order to overcome this, the BacTiter-Glo™ Microbial Cell Viability Assay kit purchased from Promega was used. The BacTiter-Glo™ Reagent relies on the properties of a proprietary thermostable luciferase (Ultra-Glo™ Recombinant Luciferase) and a proprietary formulation for extracting ATP from fungal cells which will generates a ‘glow-type’ luminescent signal. This is produced by the luciferase reaction shown in Scheme 1, which has a signal half-life of over 30 min depending on the experimental conditions. The luminescent signal is proportional to the amount of ATP present, which is directly proportional to the number of living cells in culture.
(§3) The IC50 assays for all fluorescently labelled peptides were performed using Greiner CELLSTAR white polystyrene wells flat bottomed 96 well plates. The incubation conditions remained the same for the optical density measurement described in the previous section. Once the incubation procedure was finished, the plate was equilibrated to room temperature. A mixture of BacTiter-Glo™ buffer and substrate was then added to the plate (100 μL per well). The plate was shaken for 5 min and read using the Tristar […] luminometer. Data analysis was performed using Sigma Plot 10.0. All values shown are presented as means±SEM from two independent experiments (n=3).

The next data set concerns Fusarium oxysporum. Format: cell-based. As to conditions: 24 h. Here is the method: Dose dependent inhibition of fungal growth by all non-labelled peptides (indicated by IC50 values) was determined via this methodology. The assays were performed using Nunc 262162 U96 polystyrene round bottomed clear plates (www.nuncbrand.com).
as §1
When testing the peptides against N. crassa and F. oxysporum, experiments were carried as described above apart from the incubation temperature was changed to 25° C. for N. crassa and 35° C. for F. oxysporum.
as §2, §3

Data set [2] relates to Human Red Blood Cells (HRBCs). The experiment in a line: Haemolytic activity in human red blood cells. The settings on record: 10 μM, 37° C., 1 h. Here is the method:
Molecules, DMSO (as positive control) and PBS (as negative control) were incubated with human RBCs at 37° C. and their viability was assessed after 1 h.
Erythrocytes were isolated from freshly drawn, anticoagulated human blood and diluted in PBS (1:5). An amount of 50 μl of erythrocyte suspension was added to 50 μl of compounds at 10 µM. DMSO was used as positive control and PBS as negative control. The plate was incubated at 37° C. for 1 h, each well was diluted with 150 μl of PBS and the plate was centrifuged at 1,200 g for 15 min. A total of 100 μl of the supernatant from each well was transferred to a fresh plate, and the absorbance at 350 nm was measured in a microplate reader. Data is represented as % of cell viability as means from three independent experiments with n=3.

Data set [3] is described as follows: Viability of reconstructed cornea-like epithelium (eye irritation model). The class given is cell-based. As to conditions: human, reconstructed cornea-like epithelium (RhCE, EpiOcular™). The protocol:
(§4) FIG. 4a is a graph of the viability reconstructed cornea-like epithelium (RhCE, EpiOcular™) after incubation with MFIGA001. NC=Negative Control; PC=Positive Control. FIG. 4b is a graph of the viability reconstructed cornea-like epithelium (RhCE, EpiOcular™) after incubation with 10 µM of MFIGA001a and MFIGAF001b. NC=Negative Control; PC=Positive Control; A2=MFIGAF001a; and B1=MFIGAF001b.
(§5) MFIGAF001 was also assessed independently by a CRO (Evotec) in an OECD compliant reconstructed cornea-like epithelial cell model (RhCE, EpiOcular™).

Data set [4] concerns reconstructed cornea-like epithelium (RhCE, EpiOcular™). The data set is described as above. Format: cell-based. Here is the method:
as §4, §5

The next data set concerns rabbit eye. Put plainly: Tolerability study on rabbit eyes in vivo. The settings on record: 10 µM, 50 µL into the right eye, three rabbits, observed 7 days. The protocol: Three rabbits (rabbits 1, 2 and 3) were tested. All rabbits appeared unaffected immediately post-treatment and through the next 7 days with no signs of irritation and no change in general condition. MFIGAF001a was used at 10 µM and 50 µL and was admitted into the right eye of the rabbits.

Data set [5] has as its system C. albicans, F. oxysporum, A. fumigatus, and C. neoformans. Put plainly: Live cell imaging, fluorescent labelling of pathogenic fungi. The class given is cell-based. Further details: dose or concentration left out as unconfirmed. The settings on record: 15 min incubation at 37° C. in RPMI. Here is the method:
The N. crassa mat A WT used for confocal live-cell imaging was grown on 100% Vogel's agar medium at 25° C. for 3-5 days before the spores were harvested. The A. fumigatus CEA10 strain used for confocal live-cell imaging was grown on 100% Vogel's medium at 37° C. for 4-5 days before the spores were harvested. Before the confocal experiments were performed, N. crassa spores were incubated in eight-well slide culture chambers for 3 h at 25° C. in liquid 10% Vogel's medium and A. fumigatus spores were incubated for 16 h at 25° C. in liquid 10% Vogel's medium in order to allow germination to fully take place for imaging.
Live-cell imaging of germinated fungi spores was performed using a Leica TCS SP8 confocal laser scanning microscope equipped with photo multiplier tubes (PMT), hybrid GaAsP (HyD) detectors and a 63× water immersion objective. A Leica turntable white light laser (WLL, 450-750 nm), argon laser (458 nm, 476 nm, 488 nm and 496 nm) and UV laser (405 nm) were used for fluorescence excitation.
The major pathogenic fungi include C. albicans, F. oxysporum, A. fumigatus, and C. neoformans.

For data set [6], the system named is A. fumigatus. Put plainly: Live cell imaging of A. fumigatus in co-cultures with A549. The class given is cell-based, Aspergillus fumigatus. The settings on record: 2.5 µM, 10 min after addition, 37° C. in RPMI.
The subject of data set [7] is A. fumigatus. Put plainly: Live cell imaging in pig corneal infection model. Further details: species or system Aspergillus fumigatus; dose or concentration left out as unconfirmed. As to conditions: 15 min incubation at 37° C. The protocol: MFIGAF001a in a pig corneal infection model was investigated (FIG. 12).
Porcine corneal was infected with A. fumigatus using the same method described above (Biological Example 8). After confirming the success of infection, 1 drop of MFIGAF001 solution in water (2.5 μM) was added topically to the corneal surface and incubated for 15 min at 37° C. before confocal microscopy.

The subject of the next data set is P. aeruginosa. The experiment in a line: Live cell imaging with P. aeruginosa. The settings on record: 2.5 μM, 37° C. in RPMI, 1 h. The class given is cell-based.
A further data set concerns S. aureus. Put plainly: Live cell imaging with S. aureus. The class given is cell-based, Staphylococcus aureus. The settings on record: 2.5 µM, 20 min incubation at 37° C. in RPMI. The text has this:
MFIGAF001a labels gram positive bacteria Staphylococcus aureus. (FIG. 14).

Data set [8] relates to A. fumigatus and S. aureus. The experiment in a line: Live cell imaging in pig corneal infection model co-infected by A. fumigatus and S. aureus. The settings on record: 2.5 μM, 15 min incubation at 37° C., co-infected 48 h. The text has this:
The labelled compound can be used to distinguish fungus from S. aureus when using confocal microscopy based on assessing the morphology of the areas of fluorescence. The fungal hyphea can be observed and identified based on its characteristic filamentous shape, and its much larger size compared to the bacteria which appears to be much smaller and having a dotted shape.

Data set [9] deals with Aspergillus fumigatus. The class given is cell-based. As to conditions: Conidia (RPMI), 37° C., 24 h.

Regarding `CC[C@H](C)C[C@H](C)CCCCCCCCC(=O)N[C@H]1C[C@@H](O)[C@@H](NCCN)NC(=O)[C@@H]2[C@@H](O)CCN2C(=O)[C@H]([C@H](O)CCN)NC(=O)[C@H]([C@H](O)[C@@H](O)c2ccc(O)cc2)NC(=O)[C@@H]2C[C@@H](O)CN2C(=O)[C@H]([C@@H](C)O)NC1=O` [Caspofungin], in the data set with Aspergillus species, the “MICs against Aspergillus clinical isolates” value is on record as “moderate MICs”. Moreover, the “Activity against Fusarium species (MIC testing)” value in the data set with Fusarium species is recorded as “not particularly active”.

Turning to `CN1/C(=C/C=C(/C=C/C2=[N+](C)c3ccccc3C2(C)C)c2ccc(C(=O)NCCCC[C@@H]3NC(=O)[C@H](Cc4c[nH]c5ccccc45)NC(=O)[C@H](Cc4ccccc4)NC(=O)[C@H](Cc4c[nH]c5ccccc45)NC(=O)[C@@H](Cc4ccccc4)NC(=O)[C@H](CCCCN)NC(=O)[C@H](CCCCN)NC(=O)[C@H](CCCNC(=N)N)NC(=O)CNC3=O)cn2)C(C)(C)c2ccccc21` [MFIGAF001a, Cyclo(Arg-Lys-Lys-phe-Trp-Phe-Trp-Lys(Cy5)-Gly)] (cyclo(FWK(X1)GRKK[dF]W)), in the data set on Aspergillus fumigatus [1] (Conidia (10% Vogel's), 37° C.), the “IC50 Aspergillus fumigatus” value worked out at 1.3 µg/mL. Moreover, in the data set with Fusarium oxysporum (Conidia (10% Vogel's), 35° C.), the “IC50 Fusarium oxysporum” value came out at 1.5 µg/mL. For the same molecule, the “Haemolytic activity against HRBCs” value in [2] is listed as “no haemolytic activity”. In addition, the viability at 10 µM in data set [3] (10 μM, read-out: Mean of Viabilities (%)) came out at 98%. In addition, in [4] (RhCE, EpiOcular™), the “Toxicity, reconstructed cornea-like epithelium (FIG. 4)” value is “no obvious toxicity”. In the data set on rabbit eye, the “Tolerability / eye irritation in rabbit eye” value is “no eye irritation; also recorded: well tolerated”. Also, in [5], the “Fluorescent labelling of pathogenic fungi” value was “label all major pathogenic fungi that cause fungal keratitis; also recorded: rapid and highly fluorogenic labelling”. In the data set on A. fumigatus [6], the “Selective labelling of A. fumigatus over A549” value is “selectively labels A. fumigatus over A549 cell”. Besides, the “Selective labelling of A. fumigatus over porcine corneal tissue” value in the data set on A. fumigatus [7] is on record as “selectively labelled A. fumigatus”. Moreover, in the data set on P. aeruginosa, the “Selectivity over gram negative bacteria Pseudomonas (labelling)” value is on record as “great selectivity”. Also, in the data set with S. aureus, the “Labelling of gram positive bacteria Staphylococcus aureus” value is “labels”. Also, the “Differentiation of fungus from S. aureus by morphology of fluorescence” value in data set [8] was “can be used to differentiate fungal keratitis and gram positive bacterial keratitis”.

`N=C(N)NCCC[C@@H]1NC(=O)CNC(=O)[C@H](CCCCNC(=O)c2cccc3c2C(=O)OC32c3ccc(O)cc3Oc3cc(O)ccc32)NC(=O)[C@H](Cc2c[nH]c3ccccc23)NC(=O)[C@H](Cc2ccccc2)NC(=O)[C@H](Cc2c[nH]c3ccccc23)NC(=O)[C@@H](Cc2ccccc2)NC(=O)[C@H](CCCCN)NC(=O)[C@H](CCCCN)NC1=O` [MFIGAF001b, Cyclo(Arg-Lys-Lys-phe-Trp-Phe-Trp-Lys(CF)-Gly)] (cyclo(FWK(X2)GRKK[dF]W)): in the data set on Aspergillus fumigatus [1], the “IC50 Aspergillus fumigatus” value is 2.1 µg/mL (≈ 1.29 µM). The “IC50 Fusarium oxysporum” value with Fusarium oxysporum was found to be 2.3 µg/mL (≈ 1.42 µM). Moreover, the viability at 10 µM in data set [3] was 99.1%. Also, the “Toxicity, reconstructed cornea-like epithelium (FIG. 4)” value in data set [4] is “no obvious toxicity”. Also, the “Fluorescent labelling of pathogenic fungi” value in data set [5] was “label all major pathogenic fungi that cause fungal keratitis”.

For the molecule `N=C(N)NCCC[C@@H]1NC(=O)CNC(=O)[C@H](Cc2c[nH]c3ccccc23)NC(=O)[C@H](Cc2ccccc2)NC(=O)[C@H](Cc2c[nH]c3ccccc23)NC(=O)[C@H]2CCCN2C(=O)[C@H](CCCCN)NC(=O)[C@H](CCCCN)NC1=O` [MFIGAF008], the “IC50 Aspergillus fumigatus” value in the data set on Aspergillus fumigatus [1] amounted to 5.5 µg/mL (≈ 5.06 µM). Further, the “IC50 Fusarium oxysporum” value in the data set with Fusarium oxysporum worked out at 3.8 µg/mL (≈ 3.5 µM).

Take `C[C@@H]1C/C=C/C=C/C=C/C=C/[C@H](O[C@@H]2O[C@H](C)[C@@H](O)[C@H](N)[C@@H]2O)C[C@@H]2O[C@](O)(C[C@@H](O)C[C@H]3O[C@@H]3/C=C/C(=O)O1)C[C@H](O)[C@H]2C(=O)O` [Natamycin]: in the data set on Aspergillus fumigatus [9], the “IC99 Aspergillus fumigatus” value is on record as 39 mg/L.

As to “H-RKKWFW-NH2 [PAF26, NH2-Arg-Lys-Lys-Trp-Phe-Trp-CONH2, reference compound]”, the “IC50 Aspergillus fumigatus” value in the data set with Aspergillus fumigatus [1] is 8.0 µg/mL. In addition, the “IC50 Fusarium oxysporum” value in the data set with Fusarium oxysporum stood at 7.2 µg/mL.
